Laboratory results taken from publication PMC7377239, “Cardiovascular Effects of Polychlorinated Biphenyls and Their Major Metabolites” (Environmental Health Perspectives, 2020).
Where two headings read alike, the source gives them in different places.

Tests used:
HUVECs = experiment: High-content imaging cytotoxicity in HUVECs, 24 h; assay type: cell-based, human; conditions: Homo sapiens, HUVEC, 24 h, HUVECs; for viability at 0.01 µM / activity at 0.01 µM: concentration 0.01 µM; for viability at 0.01 µM / activity at 0.01 µM / viability at 0.1 µM / activity at 0.1 µM / viability at 1 µM / activity at 1 µM / viability at 10 µM / activity at 10 µM / viability at 100 µM / activity at 100 µM: 0.00 µM = 100.00; for viability at 0.1 µM / activity at 0.1 µM: concentration 0.10 µM; for viability at 1 µM / activity at 1 µM: concentration 1.00 µM; for viability at 10 µM / activity at 10 µM: concentration 10.00 µM; for viability at 100 µM / activity at 100 µM: concentration 100.00 µM; for minimal effective concentration: MAX 100.00
In short: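 HUVECs (passages 1–5) were plated at 750 cells/well without fibronectin, grown to a monolayer (3–5 d) and exposed to compounds for 24 h at 37°C, 5% CO2. Hoechst 33342, MitoTracker Orange and calcein AM staining was imaged at 10×; readouts were normalized to 0.5% DMSO vehicle and fit to a four-parameter logistic model.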

[1] = tested on: iCell cardiomyocytes (human iPSC-derived cardiomyocytes); experiment: High-content imaging of cytotoxicity and mitochondrial integrity in iPSC-CMs; assay type: cell-based; conditions: Homo sapiens, Cardiomyocyte; for viability at 0.01 µM / activity at 0.01 µM / viability at 0.1 µM / activity at 0.1 µM / viability at 1 µM / activity at 1 µM / viability at 10 µM / activity at 10 µM / viability at 100 µM / activity at 100 µM: 0.00 µM = 100.00; for viability at 0.1 µM / activity at 0.1 µM: 0.10 µM
In short: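 Readouts from high-content images were normalized to vehicle controls containing 0.5% vol/vol DMSO. They were fit to a four-parameter logistic model in R. Points of departure were set using a cutoff of one standard deviation across vehicle control means. Where no concentration–response was seen, the top tested concentration of 100μM was assigned as the no observable adverse effect level.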

[2] = 24 hr, read-out: huvec.cyto.24hr
[3] = 24 hr, read-out: huvec.mito.24hr
[4] = 24 hr, read-out: huvec.mitoint.24hr
[5] = 24 hr, read-out: huvec.nma.24hr
[6] = 24 hrs, read-out: huvec.tc.24hrs
[7] = 1.5 h, 90min, read-out: cm.cam.90min
[8] = 1.5 h, 90min, read-out: cm.mii.90min
[9] = 1.5 h, 90min, read-out: cm.mito.90min
[10] = 1.5 h, 90min, read-out: cm.tc.90min
[11] = 24 h, 24hrs, read-out: cm.cam.24hrs
[12] = 24 h, 24hrs, read-out: cm.mii.24hrs
[13] = 24 h, 24hrs, read-out: cm.mito.24hrs
[14] = 24 h, 24hrs, read-out: cm.tc.24hrs

`Clc1ccc(Cl)c(-c2c(Cl)ccc(Cl)c2Cl)c1` [PCB95] gave a viability at 0.01 µM (HUVECs; [2]) of 81%, an activity at 0.01 µM (HUVECs; [3]) of 79.4% and an activity at 0.01 µM (HUVECs; [4]) of 106%. For the same molecule, the activity at 0.01 µM (HUVECs; [5]) was 97.4%, the viability at 0.1 µM (HUVECs; [2]) was 85.5% and the activity at 0.1 µM (HUVECs; [3]) was 84.2%. For the same molecule, the activity at 0.1 µM (HUVECs; [4]) was 109%, the activity at 0.1 µM (HUVECs; [5]) was 98.6% and the viability at 1 µM (HUVECs; [2]) was 94.8%. The activity at 1 µM (HUVECs; [3]) was 93.4%, the activity at 1 µM (HUVECs; [4]) was 106% and the activity at 1 µM (HUVECs; [5]) was 98.7%. The viability at 10 µM (HUVECs; [2]) was 70.3%, the activity at 10 µM (HUVECs; [3]) was 63.8% and the activity at 10 µM (HUVECs; [4]) was 76.7%. The activity at 10 µM (HUVECs; [5]) was 86.4%, the viability at 100 µM (HUVECs; [2]) was 64.5% and the activity at 100 µM (HUVECs; [3]) was 50.7%. The activity at 100 µM (HUVECs; [4]) was 18.7%, the activity at 100 µM (HUVECs; [5]) was 56.5% and the minimal effective concentration (HUVECs; 24 hr, read-out: huvec.cyto.24hr POD) was 0.01 µM. It also gave a minimal effective concentration (HUVECs; 24 hr, read-out: huvec.mito.24hr POD) of 0.022 µM, a minimal effective concentration (HUVECs; 24 hr, read-out: huvec.mitoint.24hr POD) of 7.41 µM and a minimal effective concentration (HUVECs; 24 hr, read-out: huvec.nma.24hr POD) of 1.93 µM. It also gave a viability at 0.01 µM (HUVECs; [6]) of 81%, a viability at 0.1 µM (HUVECs; [6]) of 85.5% and a viability at 1 µM (HUVECs; [6]) of 94.8%. The viability at 10 µM (HUVECs; [6]) was 70.3%, the viability at 100 µM (HUVECs; [6]) was 64.5% and the minimal effective concentration (HUVECs; 24 hrs, read-out: huvec.tc.24hrs POD) was 0.01 µM. The viability at 0.01 µM [1, 7] was 98.2%, the activity at 0.01 µM [1, 8] was 114% and the activity at 0.01 µM [1, 9] was 97.8%. It also gave a viability at 0.01 µM [1, 10] of 97.9%, a viability at 0.1 µM [1, 7] of 95.8% and an activity at 0.1 µM [1, 8] of 100%. The activity at 0.1 µM [1, 9] was 95.4%, the viability at 0.1 µM [1, 10] was 95.4% and the viability at 1 µM [1, 7] was 93.8%. It also gave an activity at 1 µM [1, 8] of 109%, an activity at 1 µM [1, 9] of 93.2% and a viability at 1 µM [1, 10] of 93.1%. For the same molecule, the viability at 10 µM [1, 7] was 107%, the activity at 10 µM [1, 8] was 110% and the activity at 10 µM [1, 9] was 107%. It also gave a viability at 10 µM [1, 10] of 107%, a viability at 100 µM [1, 7] of 0.65% and an activity at 100 µM [1, 8] of 92.8%. For the same molecule, the activity at 100 µM [1, 9] was 0.97%, the viability at 100 µM [1, 10] was 1.11% and the minimal effective concentration ([1]; 1.5 h, 90min, read-out: cm.cam.90min POD) was 36.6 µM. For the same molecule, the minimal effective concentration ([1]; 1.5 h, 90min, read-out: cm.mii.90min POD) was 100 µM, the minimal effective concentration ([1]; 1.5 h, 90min, read-out: cm.mito.90min POD) was 39.6 µM and the minimal effective concentration ([1]; 1.5 h, 90min, read-out: cm.tc.90min POD) was 38.7 µM. The viability at 0.01 µM [1, 11] was 97.2%, the activity at 0.01 µM [1, 12] was 90.3% and the activity at 0.01 µM [1, 13] was 95.7%. The viability at 0.01 µM [1, 14] was 97.3%, the viability at 0.1 µM [1, 11] was 98.9% and the activity at 0.1 µM [1, 12] was 99%. For the same molecule, the activity at 0.1 µM [1, 13] was 99%, the viability at 0.1 µM [1, 14] was 99% and the viability at 1 µM [1, 11] was 99.8%. For the same molecule, the activity at 1 µM [1, 12] was 100%, the activity at 1 µM [1, 13] was 97.7% and the viability at 1 µM [1, 14] was 98.7%. It also gave a viability at 10 µM [1, 11] of 93.8%, an activity at 10 µM [1, 12] of 95.1% and an activity at 10 µM [1, 13] of 92.7%. It also gave a viability at 10 µM [1, 14] of 93.5%, a viability at 100 µM [1, 11] of 1.96% and an activity at 100 µM [1, 12] of 34.3%. The activity at 100 µM [1, 13] was 1.73%, the viability at 100 µM [1, 14] was 2.9% and the minimal effective concentration ([1]; 24 h, read-out: cm.cam.24hrs POD) was 8.98 µM. For the same molecule, the minimal effective concentration ([1]; 24 h, read-out: cm.mii.24hrs POD) was 22.2 µM, the minimal effective concentration ([1]; 24 h, read-out: cm.mito.24hrs POD) was 8.96 µM and the minimal effective concentration ([1]; 24 h, read-out: cm.tc.24hrs POD) was 8.75 µM.
